In patent US8722849B2, “Polypeptides” (Novo Nordisk A/S, priority 2011, dated 2014):
In brackets after ≈: the same amount, converted by molar mass. Like-named read-outs stand apart in the source and are kept apart here. Starred links: 1 amine or outer side, 2 acyl side, 3 side chain; linkers in the order of their positions; H or OH if unused. Positions of bridges follow the written chain, without caps; N, C: chain ends. Residues, ends and D or L forms follow the SMILES beside them. Groups on a side chain read outwards from the residue. *: point of attachment. C20 diacid = O=C(O)CCCCCCCCCCCCCCCCCCC(=O)*; γGlu = O=C(O)[C@H](CCC(=O)[*:2])N[*:1]; AEEA = NCCOCCOCC(=O)O

Assay: Assay (IV) determination of solubility
Type: physicochemical
Procedure: ASSAY (IV)—Determination of Solubility
The polypeptide was dissolved in water at ˜500 nmol/ml and mixed 1:1 with a series of buffers (100 mM glycylglycine pH 3.0, 100 mM glycylglycine pH 4.0, 100 mM glycylglycine pH 5.0, 100 mM bistrispropane pH 6.0, 100 mM bistrispropane pH 6.5, 100 mM bistrispropane pH 7.0, 100 mM bistrispropane pH 7.5, 100 mM bistrispropane pH 8.0). After 18 hours at room temperature the samples were centrifuged and the polypeptide concentration determined by HPLC.

[1] = pH 3, pH 3.0, read-out: Solubility pH 3.0
[2] = pH 4, pH 4.0, 18 hours at room temperature, Table 2, read-out: Solubility pH 4.0
[3] = pH 4, pH 4.0, read-out: Solubility pH 4.0
[4] = pH 5, pH 5.0, read-out: Solubility pH 5.0
[5] = pH 6, pH 6.0, read-out: Solubility pH 6.0
[6] = pH 6.5, pH 6.5, read-out: Solubility pH 6.5
[7] = pH 7, pH 7.0, read-out: Solubility pH 7.0
[8] = pH 7.5, pH 7.5, read-out: Solubility pH 7.5

SMILES | solubility [1] | solubility [2] | solubility [3] | solubility [4] | solubility [5] | solubility [6] | solubility [7] | solubility [8] | solubility (pH 7, pH 7.0, 18 hours at room temperature, Table 3, read-out: Solubility pH 7.0) | solubility (pH 8, pH 8.0, read-out: Solubility pH 8.0)
CC[C@H](C)[C@H](NC(=O)[C@@H]1CCCN1C(=O)CNC(=O)[C@H](Cc1ccccc1)NC(=O)[C@H](CC(N)=O)NC(=O)[C@H](CCCCNC(=O)COCCOCCNC(=O)COCCOCCNC(=O)CC[C@H](NC(=O)CCCCCCCCCCCCCCCCCCC(=O)O)C(=O)O)NC(=O)[C@H](CO)NC(=O)[C@H](CO)NC(=O)[C@H](Cc1c[nH]cn1)NC(=O)[C@H](Cc1c[nH]cn1)NC(=O)[C@H](CC(C)C)NC(=O)[C@H](Cc1ccccc1)NC(=O)[C@H](CCC(=O)O)NC(=O)[C@H](C)NC(=O)[C@H](CC(C)C)NC(=O)[C@H](CCCNC(=N)N)NC(=O)[C@H](CCC(N)=O)NC(=O)[C@@H](NC(=O)[C@H](C)NC(=O)[C@@H]1CSSC[C@H](NC(=O)[C@@H](N)CCCCN)C(=O)N[C@@H](CC(N)=O)C(=O)N[C@@H]([C@@H](C)O)C(=O)N[C@@H](C)C(=O)N[C@@H]([C@@H](C)O)C(=O)N1)[C@@H](C)O)C(=O)N[C@@H](CC(C)C)C(=O)N[C@@H](CO)C(=O)N[C@@H](CO)C(=O)N[C@H](C(=O)N[C@@H](CC(N)=O)C(=O)N[C@H](C(=O)NCC(=O)N[C@@H](CO)C(=O)N[C@@H](Cc1c[nH]cn1)C(=O)N[C@H](C(=O)N[C@@H](Cc1ccc(O)cc1)C(N)=O)[C@@H](C)O)C(C)C)[C@@H](C)O [Example 148, N-epsilon21-[2-(2-{2-[2-(2-{2-[(S)-4-Carboxy-4-(19-carboxyheptadecanoylamino)butyrylamino]ethoxy}ethoxy)acetylamino]ethoxy}ethoxy)acetyl]-[Glu14,His17,Lys21,Ser28,Ser29,His35]-pramlintide] (H-KCNTATCATQRLAEFLHHSSK([AEEA-AEEA-γGlu-C20 diacid])NFGPILSSTNVGSHTY-NH2; disulfide 2-7) | > 200 µM | > 200 µM | > 200 µM | > 200 µM | 51 µM (≈ 243 µg/mL) | 19 µM (≈ 90.5 µg/mL) | 1 µM (≈ 4.76 µg/mL) | 1 µM (≈ 4.76 µg/mL) |  | 
CC[C@H](C)[C@H](NC(=O)[C@@H]1CCCN1C(=O)CNC(=O)[C@H](Cc1ccccc1)NC(=O)[C@H](CC(N)=O)NC(=O)[C@H](CCC(N)=O)NC(=O)[C@H](CO)NC(=O)[C@H](CO)NC(=O)[C@H](Cc1c[nH]cn1)NC(=O)[C@H](CCCNC(=N)N)NC(=O)[C@H](CC(C)C)NC(=O)[C@H](Cc1ccccc1)NC(=O)[C@H](CCC(=O)O)NC(=O)[C@H](C)NC(=O)[C@H](CC(C)C)NC(=O)[C@H](CCCNC(=N)N)NC(=O)[C@H](CCC(N)=O)NC(=O)[C@@H](NC(=O)[C@H](C)NC(=O)[C@@H]1CSSC[C@H](NC(=O)[C@H](CCCNC(=N)N)NC(=O)[C@H](CCC(=O)O)NC(=O)[C@H](CCC(=O)O)NC(=O)CC[C@H](NC(=O)CCCCCCCCCCCCCCCCCCC(=O)O)C(=O)O)C(=O)N[C@@H](CC(N)=O)C(=O)N[C@@H]([C@@H](C)O)C(=O)N[C@@H](C)C(=O)N[C@@H]([C@@H](C)O)C(=O)N1)[C@@H](C)O)C(=O)N[C@@H](CC(C)C)C(=O)N1CCC[C@H]1C(=O)N1CCC[C@H]1C(=O)N[C@H](C(=O)N[C@@H](CCC(N)=O)C(=O)N[C@H](C(=O)NCC(=O)N[C@@H](CO)C(=O)N[C@@H](CCC(N)=O)C(=O)N[C@H](C(=O)N1CCC[C@H]1C(N)=O)[C@@H](C)O)C(C)C)[C@@H](C)O [Example 159, N-alpha-[(S)-4-Carboxy-4-(19-carboxynonadecanoylamino)butyryl]-Glu-Glu-[Arg1,Glu14,Arg17,Gln21,Gln31,Gln35,Pro37]-pramlintide] ({C20 diacid-γGlu}-EERCNTATCATQRLAEFLRHSSQNFGPILPPTQVGSQTP-NH2; disulfide 4-9) | > 200 µM | > 200 µM | > 200 µM | > 200 µM | > 200 µM | > 200 µM | > 200 µM | > 200 µM | > 200 µM | > 200 µM
